Converted amounts (≈) assume the structure as drawn. The source made the active and inactive calls. The rule behind the calls is not given here.
Columns and labels:
[1] = tested on: Plasmodium falciparum; test: Antimicrobial activity against Plasmodium falciparum NF54; format: functional
[2] = tested on: Aspergillus fumigatus; test: Antimicrobial activity against Aspergillus fumigatus by NCCLS method; format: functional, organism-based
[3] = tested on: Candida albicans; test: Antimicrobial activity against Candida albicans by NCCLS method; format: functional, organism-based
[4] = tested on: Cryptococcus neoformans; test: Antimicrobial activity against Cryptococcus neoformans by NCCLS method; format: functional, organism-based
[5] = tested on: Staphylococcus aureus; test: Antimicrobial activity against methicillin-resistant Staphylococcus aureus by NCCLS method; format: functional, organism-based
[6] = tested on: Staphylococcus aureus; test: Antimicrobial activity against Staphylococcus aureus by NCCLS method; format: functional, organism-based
[7] = tested on: Leishmania donovani; test: Antileishmanial activity against Leishmania donovani promastigotes after 48 hrs by Alamar Blue assay; format: functional, organism-based; conditions: Leishmania donovani, 48 h; for IC50: read-out: IC50
[8] = Selectivity index, ratio of IC50 for pig LLC-PK1 cells to IC50 for Plasmodium falciparum W2; format: toxicity, cell-based; conditions: read-out: Ratio IC50
[9] = Selectivity index, ratio of IC50 for african green monkey Vero cells to IC50 for Plasmodium falciparum W2; format: toxicity, cell-based; conditions: read-out: Ratio IC50
[10] = Selectivity index, ratio of IC50 for human HepG2 cells to IC50 for Plasmodium falciparum W2; format: toxicity, cell-based; conditions: read-out: Ratio IC50
[11] = Selectivity index, ratio of IC50 for pig LLC-PK1 cells to IC50 for Plasmodium falciparum D6; format: toxicity, cell-based; conditions: read-out: Ratio IC50
[12] = Selectivity index, ratio of IC50 for african green monkey Vero cells to IC50 for Plasmodium falciparum D6; format: toxicity, cell-based; conditions: read-out: Ratio IC50
[13] = Selectivity index, ratio of IC50 for human HepG2 cells to IC50 for Plasmodium falciparum D6; format: toxicity, cell-based; conditions: read-out: Ratio IC50
[14] = tested on: LLC-PK1; test: Cytotoxicity against a pig LLC-PK1 cells after 48 hrs by Neutral Red assay; format: cell-based; conditions: Sus scrofa, LLC-PK1, 48 h
[15] = tested on: Vero; test: Cytotoxicity against african green monkey Vero cells after 48 hrs by Neutral Red assay; format: cell-based; conditions: Chlorocebus sabaeus
[16] = tested on: HepG2; test: Cytotoxicity against human HepG2 cells after 48 hrs by Neutral Red assay; format: cell-based; conditions: HepG2, 48 h
[17] = tested on: Plasmodium falciparum; test: Antimicrobial activity against Plasmodium falciparum W2 after 72 hrs by LDH activity assay; format: functional, organism-based; conditions: Plasmodium falciparum, W2, 72 h; read-out: IC50
[18] = tested on: Plasmodium falciparum; test: Antimicrobial activity against Plasmodium falciparum D6 after 72 hrs by LDH activity assay; format: functional, organism-based; conditions: Plasmodium falciparum, D6, 72 h; read-out: IC50

| SMILES | Activity [2] | Activity [3] | IC50 [4] [µM] | MBC [4] | MIC [4] | IC50 [5] | MBC [5] | MIC [5] | MBC [6] | MIC [6] | IC50 [7] [µM] | selectivity ratio [8] | selectivity ratio [9] | selectivity ratio [10] | selectivity ratio [11] | selectivity ratio [12] | selectivity ratio [13] | IC50 [14] [µM] | IC50 [15] [µM] | IC50 [16] [µM] | further results |
| --- | --- | --- | --- | --- | --- | --- | --- | --- | --- | --- | --- | --- | --- | --- | --- | --- | --- | --- | --- | --- | --- |
| CN1CCN(c2ncc(-c3ccccc3)c(-c3c[nH]c4ccccc34)n2)CC1 | – | – | – | – | – | – | – | – | – | – | – | – | – | – | – | – | – | – | – | – | MIC [1]: 3 µM (≈ 1.11 µg/mL) |
| Nc1nccc(-c2c[nH]c3ccc(Br)cc23)n1 [MERIDIANIN C] | inactive | inactive | 56.5 | inactive | inactive | Not Active | inactive | inactive | inactive | inactive | 64.9 | > 7.4 | > 7.4 | > 7.4 | > 6 | > 6 | > 6 | > 87 | > 87 | > 87 | IC50 [6]: Not Active; IC50 [17]: 11.7 µM; IC50 [18]: 14.4 µM |
| Nc1nccc(-c2cn(Cc3ccc(Cl)s3)c3ccc(Br)cc23)n1 | inactive | inactive | 19.9 | 47.7 µM (≈ 20 µg/mL) | 47.7 µM (≈ 20 µg/mL) | Not Active | inactive | inactive | inactive | inactive | 29.1 | > 5.9 | > 5.9 | > 5.9 | > 4.4 | > 4.4 | > 4.4 | > 60 | > 60 | > 60 | IC50 ([6]; Staphylococcus aureus, read-out: IC50): 40.5 µM; IC90 [7]: 41.2 µM; IC50 [17]: 10.1 µM; IC50 [18]: 13.6 µM |
